These compounds were tested against T1, USP7 (Homo sapiens, UniProt Q93009) (assay: USP7, Ub-PLA2 assay). Settings: Ub-PLA2 / NBD C6-HPC fluorescence, 30 minute preincubation; read-out: EC50 for inhibition of USP7.
T1 construct: full length human USP7 protein; made in house
Assay type: biochemical
Description: The purpose of this assay is to measure the inhibition of USP7 by various compounds of the invention synthesized according to the above-described methods. […] The vehicle control was 100% (v/v) DMSO. 1.6 μL aliquots of the diluted test compound and controls were dispensed into individual wells in a black walled 96 well plate. […] The data were normalized within a plate relative to the control wells using the equation % inhibition=(100−(((RFUcompound−RFUmean NEM) / (RFUmean DMSO−RFUmean NEM))×100)).

T1 sequence (Q93009 whole entry): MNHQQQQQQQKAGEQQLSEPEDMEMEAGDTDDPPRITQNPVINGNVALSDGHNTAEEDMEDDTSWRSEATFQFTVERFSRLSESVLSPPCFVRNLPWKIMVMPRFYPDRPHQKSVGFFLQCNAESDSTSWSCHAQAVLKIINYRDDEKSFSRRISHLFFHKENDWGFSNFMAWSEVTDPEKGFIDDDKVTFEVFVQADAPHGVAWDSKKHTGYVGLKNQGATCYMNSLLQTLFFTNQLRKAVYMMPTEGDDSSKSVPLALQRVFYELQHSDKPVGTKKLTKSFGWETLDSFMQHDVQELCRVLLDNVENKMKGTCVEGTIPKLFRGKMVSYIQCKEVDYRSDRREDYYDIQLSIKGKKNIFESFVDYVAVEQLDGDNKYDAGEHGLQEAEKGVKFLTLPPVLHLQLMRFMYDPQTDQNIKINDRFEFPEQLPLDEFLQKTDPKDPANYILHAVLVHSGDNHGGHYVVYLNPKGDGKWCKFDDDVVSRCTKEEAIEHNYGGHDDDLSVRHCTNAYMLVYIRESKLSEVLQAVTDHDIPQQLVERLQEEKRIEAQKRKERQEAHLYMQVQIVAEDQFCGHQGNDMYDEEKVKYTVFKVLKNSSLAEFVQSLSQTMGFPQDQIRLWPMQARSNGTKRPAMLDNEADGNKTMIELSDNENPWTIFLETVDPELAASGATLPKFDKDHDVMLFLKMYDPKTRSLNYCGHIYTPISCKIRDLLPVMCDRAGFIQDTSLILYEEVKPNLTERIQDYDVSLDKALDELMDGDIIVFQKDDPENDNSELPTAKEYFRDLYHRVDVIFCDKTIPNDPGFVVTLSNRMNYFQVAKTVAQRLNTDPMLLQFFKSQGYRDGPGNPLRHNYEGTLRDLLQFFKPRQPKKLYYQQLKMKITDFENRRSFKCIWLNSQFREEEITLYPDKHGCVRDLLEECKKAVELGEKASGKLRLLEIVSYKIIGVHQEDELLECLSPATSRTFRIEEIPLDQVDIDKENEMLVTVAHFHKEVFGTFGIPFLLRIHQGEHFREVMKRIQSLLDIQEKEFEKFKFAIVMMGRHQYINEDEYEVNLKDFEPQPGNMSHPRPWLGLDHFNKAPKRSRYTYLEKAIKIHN

Compound | EC50
CCN1CCC(CCNC(=O)c2cc([N+](=O)[O-])c(Sc3c(Cl)cncc3Cl)s2)CC1 [Example 185, 5-((3,5-dichloropyridin-4-yl)thio)-N-(2-(1-ethylpiperidin-4-yl)ethyl)-4-nitrothiophene-2-carboxamide] | ≤ 1 µM
CC(=O)c1cc([N+](=O)[O-])c(Sc2ccc([N+](=O)[O-])cc2)s1 [Example 13, 1-[4-nitro-5-(4-nitrophenylsulfanyl)-2-thienyl]ethanone] | 1 to 10 µM
CN1CCN(C(=O)c2cc([N+](=O)[O-])c(Sc3c(Cl)cncc3Cl)s2)CC1 [Example 66, (5-((3,5-dichloropyridin-4-yl)thio)-4-nitrothiophen-2-yl)(4-methylpiperazin-1-yl)methanone] | 1 to 10 µM
CC1(C)CCN(C(=O)c2cc([N+](=O)[O-])c(Sc3c(Cl)cncc3Cl)s2)CC1 [Example 80, (5-((3,5-dichloropyridin-4-yl)thio)-4-nitrothiophen-2-yl)(4,4-dimethylpiperidin-1-yl)methanone] | 1 to 10 µM
CN1CCC(NC(=O)c2cc([N+](=O)[O-])c(Sc3c(F)cncc3F)s2)CC1 [Example 256, 5-((3,5-difluoropyridin-4-yl)thio)-N-(1-methylpiperidin-4-yl)-4-nitrothiophene-2-carboxamide] | 1 to 10 µM
Cc1nc(C)c(Cl)c(Sc2sc(C(=O)NC3CCN(C)CC3)cc2[N+](=O)[O-])c1Cl [Example 243, 5-((3,5-dichloro-2,6-dimethylpyridin-4-yl)thio)-N-(1-methylpiperidin-4-yl)-4-nitrothiophene-2-carboxamide] | 1 to 10 µM
O=C(NCC(=O)N1CCCC(O)C1)c1cc([N+](=O)[O-])c(Sc2c(Cl)cncc2Cl)s1 (stereo not drawn) [Example 212, 5-((3,5-dichloropyridin-4-yl)thio)-N-(2-(3-hydroxypiperidin-1-yl)-2-oxoethyl)-4-nitrothiophene-2-carboxamide] | 1 to 10 µM

Now from value to compound:

EC50 | Compound
≤ 1 µM | O=C(Nc1ccccc1Cl)c1cc([N+](=O)[O-])c(Sc2c(Cl)cncc2Cl)s1 [Example 134, N-(2-chlorophenyl)-5-((3,5-dichloropyridin-4-yl)thio)-4-nitrothiophene-2-carboxamide]
≤ 1 µM | CN(C)c1ccc(CNC(=O)c2cc([N+](=O)[O-])c(Sc3c(Cl)cncc3Cl)s2)cc1 [Example 121, 5-((3,5-dichloropyridin-4-yl)thio)-N-(4-(dimethylamino)benzyl)-4-nitrothiophene-2-carboxamide]
1 to 10 µM | CN1CCN(C(=O)CNC(=O)c2cc([N+](=O)[O-])c(Sc3c(Cl)cncc3Cl)s2)CC1 [Example 218, 5-((3,5-dichloropyridin-4-yl)thio)-N-(2-(4-methylpiperazin-1-yl)-2-oxoethyl)-4-nitrothiophene-2-carboxamide]
1 to 10 µM | O=C(NC1CCCNC1=O)c1cc([N+](=O)[O-])c(Sc2c(Cl)cncc2Cl)s1 (stereo not drawn) [Example 95, 5-((3,5-dichloropyridin-4-yl)thio)-4-nitro-N-(2-oxopiperidin-3-yl)thiophene-2-carboxamide]
≤ 1 µM | O=C(NC1CCNC1)c1cc([N+](=O)[O-])c(Sc2c(Cl)cncc2Cl)s1 (stereo not drawn) [Example 195, 5-((3,5-dichloropyridin-4-yl)thio)-4-nitro-N-(pyrrolidin-3-yl)thiophene-2-carboxamide]
≤ 1 µM | CC(O)c1ccc(NC(=O)c2cc([N+](=O)[O-])c(Sc3c(Cl)cncc3Cl)s2)cc1 (stereo not drawn) [Example 131, 5-((3,5-dichloropyridin-4-yl)thio)-N-(4-(1-hydroxyethyl)phenyl)-4-nitrothiophene-2-carboxamide]
≤ 1 µM | O=C(Nc1ccc(F)cc1)c1cc([N+](=O)[O-])c(Sc2c(Cl)cncc2Cl)s1 [Example 136, 5-((3,5-dichloropyridin-4-yl)thio)-N-(4-fluorophenyl)-4-nitrothiophene-2-carboxamide]
≤ 1 µM | CC(C)(C)OC(=O)Nc1ccc(NC(=O)c2cc([N+](=O)[O-])c(Sc3c(Cl)cncc3Cl)s2)cc1 [Example 234, tert-butyl (4-(5-((3,5-dichloropyridin-4-yl)thio)-4-nitrothiophene-2-carboxamido)phenyl)carbamate]

Source: patent publication US8680139B2 (Progenra, priority 2009, dated 2014)
